Results from article PMC6646865, “Design and Synthesis of Imidazole and Triazole Pyrazoles as Mycobacterium Tuberculosis CYP121A1 Inhibitors” (ChemistryOpen, 2019).
Values after ≈ are worked out from the molar mass of the structure shown. Like-named read-outs stand apart in the source and are kept apart here.

What was measured:
M. tuberculosis H37Rv [1] = assay: Antimycobacterial activity, REMA (Resazurin Microtiter Assay) MIC; assay type: cell-based, Mycobacterium tuberculosis; conditions: lowest concentration giving 90 % inhibition, 7 days 37 °C
CYP121A1 [2] = target: T1, CYP121A1 (Mycobacterium tuberculosis, UniProt P9WPP7); assay: biochemical; assay type: binding; conditions: for Soret peak shift: Soret maximum ligand-free to ligand-bound CYP121A1; for Kd: UV-vis optical titration, 3–5 μM CYP121A1, 25 °C, pH 7.85, triplicate; for Soret maxima shifting by: extent of the Soret absorbance red shift on binding
T1 construct: made in house
T1 sequence (P9WPP7 whole entry): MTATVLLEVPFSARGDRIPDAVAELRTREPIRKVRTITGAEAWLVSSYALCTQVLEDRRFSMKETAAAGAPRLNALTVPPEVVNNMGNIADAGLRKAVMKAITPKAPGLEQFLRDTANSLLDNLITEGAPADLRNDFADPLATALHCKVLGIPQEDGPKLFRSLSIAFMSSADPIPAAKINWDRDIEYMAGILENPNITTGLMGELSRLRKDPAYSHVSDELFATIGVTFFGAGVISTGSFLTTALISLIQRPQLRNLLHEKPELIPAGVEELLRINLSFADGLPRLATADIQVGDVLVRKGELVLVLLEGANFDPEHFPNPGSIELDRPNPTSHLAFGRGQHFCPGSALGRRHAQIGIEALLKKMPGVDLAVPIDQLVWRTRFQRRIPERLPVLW

M. tuberculosis H37Rv [3] = test system: M. tuberculosis H37Rv; parameters: method as in PMID 29185746; conditions: lead compounds; cited from earlier work
CYP121A1 [4] = target: T1, CYP121A1; conditions: cited from earlier work; for Soret peak shift: lead compounds and cYY (type I shift for cYY); for Kd: lead compounds and natural substrate cYY; for Soret peak shift to: azole antifungal drugs binding Mtb CYP121A1
[5] = Mycobacterium tuberculosis, H37RV, 168 h, read-out: MIC

SMILES	MIC (M. tuberculosis H37Rv [1]; [5])	Soret peak shift (CYP121A1 [2])	Kd (CYP121A1 [2])	melting point	further results
c1ccc(-n2cc(Cn3ccnc3)c(-c3ccncc3)n2)cc1 [10 a, 4‐(4‐((1H‐Imidazol‐1‐yl)methyl)‐1‐phenyl‐1H‐pyrazol‐3‐yl)pyridine]	12.5 to 25 µg/mL (≈ 41.5 to 83 µM)	416.5 to 419 nm	60.5 ± 10.5 µM	80 to 82 °C	MIC (M. tuberculosis H37Rv [1]): 12.5 µg/mL (≈ 41.5 µM)
c1ccc(-n2cc(Cn3ccnc3)c(-c3cccnc3)n2)cc1 [10 b, 3‐(4‐((1H‐Imidazol‐1‐yl)methyl)‐1‐phenyl‐1H‐pyrazol‐3‐yl)pyridine]	12.5 to 25 µg/mL (≈ 41.5 to 83 µM)	416.5 to 421 nm	53.6 ± 6.8 µM	–	MIC (M. tuberculosis H37Rv [1]): 12.5 µg/mL (≈ 41.5 µM)
CCc1ccc(-c2nn(-c3ccccc3)cc2Cn2ccnc2)cc1 [10 c, 4‐((1H‐Imidazol‐1‐yl)methyl)‐3‐(4‐ethylphenyl)‐1‐phenyl‐1H‐pyrazole]	1.56 µg/mL (≈ 4.76 µM)	416.5 to 420 nm	18.3 ± 3.4 µM	74 to 76 °C	–
CCCc1ccc(-c2nn(-c3ccccc3)cc2Cn2ccnc2)cc1 [10 d, 4‐((1H‐Imidazol‐1‐yl)methyl)‐1‐phenyl‐3‐(4‐propylphenyl)‐1H‐pyrazole]	0.781 µg/mL (≈ 2.28 µM)	416.5 to 420 nm	53.7 ± 5.9 µM	–	–
CC(C)c1ccc(-c2nn(-c3ccccc3)cc2Cn2ccnc2)cc1 [10 e, 4‐((1H‐Imidazol‐1‐yl)methyl)‐3‐(4‐isopropylphenyl)‐1‐phenyl‐1H‐pyrazole]	1.56 µg/mL (≈ 4.56 µM)	416.5 to 423 nm	22.5 ± 3.5 µM	–	Soret maxima shifting by (CYP121A1 [2]): 6.5 nm
CC(C)Cc1ccc(-c2nn(-c3ccccc3)cc2Cn2ccnc2)cc1 [10 f, 4‐((1H‐Imidazol‐1‐yl)methyl)‐3‐(4‐isobutylphenyl)‐1‐phenyl‐1H‐pyrazole]	1.56 µg/mL (≈ 4.38 µM)	416.5 to 423.5 nm	0.22 ± 0.01 µM	–	Soret maxima shifting by (CYP121A1 [2]): 7 nm
CC(C)(C)c1ccc(-c2nn(-c3ccccc3)cc2Cn2ccnc2)cc1 [10 g, 4‐((1H‐Imidazol‐1‐yl)methyl)‐3‐(4‐(tert‐butyl)phenyl)‐1‐phenyl‐1H‐pyrazole]	1.56 µg/mL (≈ 4.38 µM)	416.5 to 419.5 nm	4.81 ± 0.31 µM	116 to 117 °C	–
c1ccc(-c2ccc(-c3nn(-c4ccccc4)cc3Cn3ccnc3)cc2)cc1 [10 h, 4‐((1H‐Imidazol‐1‐yl)methyl)‐3‐([1,1′‐biphenyl]‐4‐yl)‐1‐phenyl‐1H‐pyrazole]	3.12 µg/mL (≈ 8.3 µM)	416.5 to 423.5 nm	2.91 ± 0.14 µM	114 to 115 °C	Soret maxima shifting by (CYP121A1 [2]): 7 nm
c1ccc(-n2cc(Cn3ccnc3)c(-c3ccc4c(c3)OCO4)n2)cc1 [10 i, 4‐((1H‐Imidazol‐1‐yl)methyl)‐3‐(benzo[d][1,3]dioxol‐5‐yl)‐1‐phenyl‐1H‐pyrazole]	3.12 µg/mL (≈ 9.07 µM)	416.5 to 422.5 nm	10.1 ± 0.3 µM	62 to 64 °C	–
Clc1[nH]c2ccccc2c1-c1nn(-c2ccccc2)cc1Cn1ccnc1 [10 j, 3‐(4‐((1H‐Imidazol‐1‐yl)methyl)‐1‐phenyl‐1H‐pyrazol‐3‐yl)‐2‐chloro‐1H‐indole]	12.5 to 25 µg/mL (≈ 33.4 to 66.9 µM)	416.5 to 423.5 nm	3.31 ± 0.05 µM	–	MIC (M. tuberculosis H37Rv [1]): 25 µg/mL (≈ 66.9 µM); Soret maxima shifting by (CYP121A1 [2]): 7 nm
c1ccc(-n2cc(Cn3cncn3)c(-c3ccncc3)n2)cc1 [11 a, 4‐(4‐((1H‐1,2,4‐Triazol‐1‐yl)methyl)‐1‐phenyl‐1H‐pyrazol‐3‐yl)pyridine]	> 100 µg/mL	416.5 to 417.5 nm	115 ± 27 µM	98 to 100 °C	–
c1ccc(-n2cc(Cn3cncn3)c(-c3cccnc3)n2)cc1 [11 b, 3‐(4‐((1H‐1,2,4‐Triazol‐1‐yl)methyl)‐1‐phenyl‐1H‐pyrazol‐3‐yl)pyridine]	> 100 µg/mL	416.5 to 417.5 nm	250 ± 51.6 µM	110 to 112 °C	–
O=C(NCCCn1ccnc1)c1cn(-c2ccccc2)nc1-c1ccncc1 [13 a, N‐(3‐(1H‐Imidazol‐1‐yl)propyl)‐1‐phenyl‐3‐(pyridin‐4‐yl)‐1H‐pyrazole‐4‐carboxamide]	100 µg/mL (≈ 269 µM)	416.5 to 423.5 nm	83.2 ± 3.9 µM	104 to 106 °C	Soret maxima shifting by (CYP121A1 [2]): 7 nm
O=C(NCCCn1ccnc1)c1cn(-c2ccccc2)nc1-c1cccnc1 [13 b, N‐(3‐(1H‐Imidazol‐1‐yl)propyl)‐1‐phenyl‐3‐(pyridin‐3‐yl)‐1H‐pyrazole‐4‐carboxamide]	> 100 µg/mL	416.5 to 417.5 nm	85.6 ± 12.4 µM	80 to 82 °C	–
O=C(NCc1ccncc1)c1cn(-c2ccccc2)nc1-c1ccncc1 [14 a, 1‐Phenyl‐3‐(pyridin‐4‐yl)‐N‐(pyridin‐4‐ylmethyl)‐1H‐pyrazole‐4‐carboxamide]	> 100 µg/mL	416.5 to 419.5 nm	219 ± 13.6 µM	206 to 208 °C	–
O=C(NCc1ccncc1)c1cn(-c2ccccc2)nc1-c1cccnc1 [14 b, 1‐Phenyl‐3‐(pyridin‐3‐yl)‐N‐(pyridin‐4‐ylmethyl)‐1H‐pyrazole‐4‐carboxamide]	> 100 µg/mL	416.5 to 417.5 nm	39 ± 8.2 µM	206 to 208 °C	–
Clc1ccccc1C(c1ccccc1)(c1ccccc1)n1ccnc1 [Clotrimazole, clotrimazole, reference compound]	20 µg/mL (≈ 58 µM)	–	–	–	–
c1ccc(-c2nn(-c3ccccc3)cc2Cn2ccnc2)cc1 [Compound 1, (1,3‐diphenyl)‐4‐((1,3‐imidazol‐1‐yl)methyl)‐1H‐pyrazole]	–	–	–	–	MIC (M. tuberculosis H37Rv [3]): 12.5 µg/mL (≈ 41.6 µM); Soret peak shift (CYP121A1 [4]): 416.5 to 424 nm; Kd (CYP121A1 [4]): 2.6 ± 0.2 µM
c1ccc(-c2nn(-c3ccccc3)cc2Cn2cncn2)cc1 [Compound 2, 1‐((1,3‐diphenyl‐1H‐pyrazol‐4‐yl)methyl)‐1H‐1, 2, 4triazole]	–	–	–	–	MIC (M. tuberculosis H37Rv [3]): 50 µg/mL (≈ 166 µM); Soret peak shift (CYP121A1 [4]): 416.5 to 422.5 nm; Kd (CYP121A1 [4]): 73.5 ± 0.7 µM
COc1ccc(-n2nc(Cn3ccnc3)cc2C)cc1 [Compound 23, 3‐((1H‐Imidazol‐1‐yl)methyl)‐1‐(4‐methoxyphenyl)‐5‐methyl‐1H‐pyrazole]	–	416.5 to 418 nm	34.5 ± 4.8 µM	–	–
COc1ccc(-n2nc(Cn3cncn3)cc2C)cc1 [Compound 24, 1‐((1‐(4‐Methoxyphenyl)‐5‐methyl‐1H‐pyrazol‐3‐yl)methyl)‐1H‐1,2,4‐triazole]	> 100 µg/mL	416.5 to 418 nm	105 ± 7 µM	–	–
COc1ccc(-n2nc(C)cc2Cn2ccnc2)cc1 [Compound 25, 5‐((1H‐Imidazol‐1‐yl)methyl)‐1‐(4‐methoxyphenyl)‐3‐methyl‐1H‐pyrazole]	25 µg/mL (≈ 93.2 µM)	416.5 to 418.5 nm	22.9 ± 0.2 µM	–	–
COc1ccc(-n2nc(C)cc2Cn2cncn2)cc1 [Compound 26, 1‐((1‐(4‐Methoxyphenyl)‐3‐methyl‐1H‐pyrazol‐5‐yl)methyl)‐1H‐1,2,4‐triazole]	100 µg/mL (≈ 371 µM)	–	98.3 ± 7.4 µM	47 to 48 °C	–
OC(Cn1cncn1)(Cn1cncn1)c1ccc(F)cc1F [Fluconazole, fluconazole, reference compound]	> 100 µg/mL	–	–	–	–
Clc1ccc(COC(Cn2ccnc2)c2ccc(Cl)cc2Cl)cc1 (centres unmarked) [econazole]	–	–	–	–	Soret peak shift to (CYP121A1 [4]): 421–423.5 nm
CC(=O)N1CCN(c2ccc(OCC3COC(Cn4ccnc4)(c4ccc(Cl)cc4Cl)O3)cc2)CC1 (centres unmarked) [ketoconazole]	–	–	–	–	Soret peak shift to (CYP121A1 [4]): 421–423.5 nm
Clc1ccc(COC(Cn2ccnc2)c2ccc(Cl)cc2Cl)c(Cl)c1 (centres unmarked) [miconazole]	–	–	–	–	Soret peak shift to (CYP121A1 [4]): 421–423.5 nm
